Test results: patent US12465607B2, “ALK inhibitors for treatment of ALK-negative cancer and plasma cell-mediated diseases” (UNIVERSITETET I OSLO, priority 2019, dated 2025)
Like-named read-outs stand apart in the source and are kept apart here.

How the values were obtained:
[1] = tested on: human L363-BTZ (bortezomib-resistant) myeloma cells; assay: Intrafemoral L363-BTZ luciferase xenograft in NSG mice; assay type: in vivo; conditions: 7 days treatment from day 10; crizotinib 50 mg/kg orally daily; bortezomib 1 mg/kg i.v. twice
Experimental: In this figure, immunocompromised NSG mice were intrafemorally injected with human L363-BTZ (bortezomib-resistant) myeloma cells. The cells were equipped with luciferase for in vivo monitoring of disease progression. After 10 days, mice were treated with bortezomib i.v. twice over a 7 day period and with crizotinib orally every day over the 7 day period. The images on the left show examples of tumour load in the different groups at days 4 and 7 of treatment (days 14 and 17 post tumour inoculation), and the graph on the right depicts the average luciferase signal for each mouse in each cohort (n=4) normalised to day 0 of the treatment (day 10 post tumour inoculation). Statistical significance between the groups was assessed with two-way ANOVA and between the time-points using one-way ANOVA with Tukey post-test.
NSG (NOD-scid IL2Rgamma^null) mice were obtained from The Jackson Laboratory (No. 005557, CA, USA) and kept in isolated ventilated cages with food ad libitum. Age matched (6-8 weeks old) mice were injected with 0.5×10^5 L363-BTZ_Luc+_TdTomato+ multiple myeloma cells (equipped with luciferase vector for monitoring, obtained from Addgene: #72486) into the right femur. Tumour growth was monitored twice over the week following luciferin injection (150 mg/kg, obtained from BioVision, CA, USA). […]

AMO-1-BTZ = assay: Myeloma cell line viability, CCK-8, 24 hr; assay type: cell-based; conditions: Homo sapiens, 24 hr treatment
Experimental: (§1) The Results are the means of 3 independent experiments. Note the concentration-dependent reduction of viability of myeloma cells.
(§2) The cell lines used were the human multiple myeloma cell lines L363 (DSMZ catalogue number ACC 49), AMO-1 (DSMZ catalogue number ACC 538) and ARH-77 (ATCC CRL-1621).
(§3) Multiple myeloma cell lines were maintained in RPMI-1640 culture medium (Sigma-Aldrich, Buchs, Switzerland) supplemented with 10% heat-inactivated fetal bovine serum (FBS), 100 μg/ml streptomycin and 100 U/ml penicillin/streptomycin (Sigma-Aldrich, Buchs, Switzerland). The bortezomib-resistant cell lines were established and maintained from their parental cell line by continuous drug exposure>12 months to their parental cell lines (Soriano et al, Leukemia 30: 2198-2207, 2016).
(§4) The viability of the cells was determined 24 hr post treatment using Cell Counting Kit-8 (CCK-8; MedChemExpress, NJ, USA) according to the manufacturer's instructions.

AMO-1 = assay: Myeloma cell line viability, CCK-8, 24 hr; assay type: cell-based; conditions: Homo sapiens, AMO1; AMO-1, 24 hr treatment
Experimental: as §1, §2, §3, §4

CLL cells = assay: Viability of activated CLL cells from patients, CellTiter-Glo 72 h (IC50, DSS); assay type: cell-based, human; conditions: for IC50: Homo sapiens, CLL cell
Experimental: CLL cells from patients were stimulated by adherent murine L cells expressing CD40L, BAFF and April for 24 h. The L cells were then removed by immuno-magnetic separation. Washed CLL cells were plated into 384-well plate format (10,000 cells/well) and tested against crizotinib at 5 concentrations in 10-fold dilutions (plates dispensed by an Echo acoustic dispenser, LabCyte Inc., San Jose, CA, USA). The plate was incubated in a humidified environment at 37° C. and 5% CO2. Cell viability was determined after 72 h using the CellTiter-Glo (Promega, Madison, WI, USA) ATP assay according to the manufacturer's instructions and using an Envision 2102 Multilabel reader (PerkinElmer, Shelton, CT, USA). Relative percentage cell viability was calculated by normalising luminescence units for each well to negative (DMSO 0.1%) and positive (100 μM BzCl) control wells. Curve fitting was conducted to obtain IC50 values.
Quantitative scoring of differential drug sensitivity for individual drugs was calculated as drug sensitivity scores (DSS values, Yadav et al., Scientific Reports 4: 5193, 2014). DSS values were calculated for integrated multiple dose-response relationships in high-throughput compound testing as shown.

LTK = target: T1, LTK (Homo sapiens, UniProt P29376); conditions: Centonze et al.; cited from earlier work
T1 construct: expressed in transfected cells; host or cells: HeLa cells
T1 sequence (P29376 17-864): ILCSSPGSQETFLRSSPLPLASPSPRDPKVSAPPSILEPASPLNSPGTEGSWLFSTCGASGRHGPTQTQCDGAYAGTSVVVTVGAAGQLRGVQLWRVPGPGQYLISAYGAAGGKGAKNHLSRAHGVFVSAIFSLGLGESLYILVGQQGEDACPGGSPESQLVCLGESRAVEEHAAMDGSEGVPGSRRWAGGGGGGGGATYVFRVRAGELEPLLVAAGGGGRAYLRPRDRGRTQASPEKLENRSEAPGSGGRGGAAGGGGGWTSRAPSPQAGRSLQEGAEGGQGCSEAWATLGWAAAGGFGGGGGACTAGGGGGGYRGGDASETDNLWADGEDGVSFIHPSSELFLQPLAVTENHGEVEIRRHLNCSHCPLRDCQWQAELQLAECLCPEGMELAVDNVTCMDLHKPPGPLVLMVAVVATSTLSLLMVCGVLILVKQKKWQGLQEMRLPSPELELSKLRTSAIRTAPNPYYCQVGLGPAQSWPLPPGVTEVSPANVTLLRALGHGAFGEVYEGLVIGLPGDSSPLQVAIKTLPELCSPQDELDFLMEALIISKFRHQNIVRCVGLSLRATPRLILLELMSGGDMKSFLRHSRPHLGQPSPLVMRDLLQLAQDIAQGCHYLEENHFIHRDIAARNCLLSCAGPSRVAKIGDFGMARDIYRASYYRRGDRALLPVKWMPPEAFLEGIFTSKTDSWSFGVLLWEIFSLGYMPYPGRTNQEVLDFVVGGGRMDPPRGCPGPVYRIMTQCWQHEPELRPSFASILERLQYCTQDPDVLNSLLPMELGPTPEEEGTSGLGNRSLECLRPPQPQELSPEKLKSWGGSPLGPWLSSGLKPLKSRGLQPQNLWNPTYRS

plasma cells = assay: Viability of in vitro-generated IRF4/BLIMP1 double positive end stage plasma cells; assay type: cell-based; conditions: Homo sapiens, B-cell, 120 h; B-cells stimulated 5 days, inhibitor day 5-7
From the text: Negatively selected normal B-cells from blood bank donors were stimulated with sCD40L, IL-21, IL-4 for 5 days. This protocol allows generation of 10-20% end differentiated plasma cells that express IRF4 and BLIMP1. From day 5-7, cells were exposed to titred crizotinib in A, or ceritinib in B.
In A and B, IRF4 vs BLIMP1 in gated CD19^+ B cells is shown. IRF4 and BLIMP1 double positive cells represent end stage plasma cells. Such plasma cells are gated (blue elliptic region) and percent plasma cells are shown. The conditions without inhibitor (0) and with linear Alk-inhibitor (crizotinib, A; ceritinib, B) are shown for concentrations 0.01 μM, 0.1 μM, 1 μM, 10 μM and 100 μM.

[2] = tested on: B-cell blasts (plasma blasts/cells); assay: Viability of in vitro-generated B-cell blasts (plasma blasts/cells), CellTiterGlo 72 h; assay type: cell-based; conditions: Homo sapiens, day 3 B-cell blasts from 5 donors
Experimental: CD19^+ B-cells from 5 blood bank donors were stimulated by adherent murine L cells expressing CD40L, BAFF and April for 3 days to make B-cell blasts (plasma blasts/cells). plasma blasts/cells were tested for sensitivity to crizotinib for 72 h (CellTiterGlo).
CD19^+ B-cells from 5 blood bank donors were stimulated by adherent murine L cells expressing CD40L, BAFF and April for 3 days to make B-cell blasts (plasma blasts/cells). Washed plasma blasts/cells were detached and plated into 384 well format (10,000 cells/well) and tested against crizotinib at 6 concentrations in 10-fold dilutions covering a 10^−3-10 μM concentration range. Cell viability was determined after 72 h using the CellTiterGlo. Relative percentage cell viability was calculated by normalising luminescence units for each well to negative controls (DMSO 0.1%) and positive control wells (100 μM BzCl) and curve-fitting conducted to obtain the IC50.

[3] = CLL cells from 21 patients, 72 h

IC50 (AMO-1-BTZ): 6480 nM
IC50 (AMO-1): 3920 nM
SMILES: C[C@@H](Oc1cc(-c2cnn(C3CCNCC3)c2)cnc1N)c1c(Cl)ccc(F)c1Cl [crizotinib, 3-[(1R)-1-(2,6-dichloro-3-fluorophenyl)ethoxy]-5-(1-piperidin-4-ylpyrazol-4-yl)pyridin-2-amine]
tumour burden (luciferase signal) [1]: reduction in tumour burden
share of patients with CLL cells highly sensitive by drug sensitivity score (DSS) (CLL cells; 21 patients): a third
patients with susceptible CLL cells, cut-off DSS=10 (CLL cells; CLL cells from 12 new patients): 10/12
patient samples with CLL cells sensitive (CLL cells; [3]): 17 of 21
patient samples with CLL cells sensitive, percent (CLL cells; [3]): 81%
IC50 (CLL cells; 3 patient samples, read-out: IC50, highly sensitive CLL samples): < 200 nM
IC50 (CLL cells; 3 patient samples, read-out: IC50, supersensitive CLL samples): < 10 nM
IC50 (CLL cells; 11 patient samples, read-out: IC50, normally sensitive CLL samples): < 2000 nM
patient samples highly sensitive (CLL cells; IgVH mutated CLL): Three out of 15
patient samples with low sensitivity (CLL cells; IgVH mutated CLL): Four of the 15
patient samples highly sensitive (CLL cells; IgVH unmutated CLL): Four of six
patient samples with low sensitivity (CLL cells; IgVH unmutated CLL): None
inhibition of LTK (previously shown) (LTK): previously been shown to inhibit LTK
IC50 (plasma cells): 800 nM
IC50 [2]: 1000 to 1500 nM
